Assays:
BuChE = target: T1, BuChE (Homo sapiens, UniProt P06276); experiment: biochemical; settings: mean ± SD of three independent experiments
T1 construct: purchased Sigma-Aldrich
Description: (§1) Five different concentrations (10^−4–10^−9 M) of each compound were tested for the inhibitory activity for AChE and BuChE. 10 μL 0.86 U/mL AChE or BuChE, 60 μL 0.1 M phosphate buffer (pH 8.0), and 10 μL test compounds were incubated together at 37 °C for 10 min. An amount of 20 μL 10 mmol/L […] or butylthicoline iodide was added and the solution was incubated at 37 °C for 10 min again. Then 20 μL 5 mmol/L 5,5′-dithiobis-(2-nitrobenzoic acid) (DTNB) and 30 μL 1% sodium dodecyl sulfatesodium salt (SDS) were added. […] Each concentration was analyzed three times, and the IC50 value was calculated from the concentration-inhibition response curve on logarithmic scale.

AChE [1] = target: T2, AChE (Homo sapiens, UniProt P22303); experiment: biochemical; settings: for Selectivity Index: Selectivity index = IC50 (BuChE)/IC50 (AChE); for IC50: mean ± SD of three independent experiments
T2 construct: purchased Sigma-Aldrich
T2 sequence (P22303 32-614): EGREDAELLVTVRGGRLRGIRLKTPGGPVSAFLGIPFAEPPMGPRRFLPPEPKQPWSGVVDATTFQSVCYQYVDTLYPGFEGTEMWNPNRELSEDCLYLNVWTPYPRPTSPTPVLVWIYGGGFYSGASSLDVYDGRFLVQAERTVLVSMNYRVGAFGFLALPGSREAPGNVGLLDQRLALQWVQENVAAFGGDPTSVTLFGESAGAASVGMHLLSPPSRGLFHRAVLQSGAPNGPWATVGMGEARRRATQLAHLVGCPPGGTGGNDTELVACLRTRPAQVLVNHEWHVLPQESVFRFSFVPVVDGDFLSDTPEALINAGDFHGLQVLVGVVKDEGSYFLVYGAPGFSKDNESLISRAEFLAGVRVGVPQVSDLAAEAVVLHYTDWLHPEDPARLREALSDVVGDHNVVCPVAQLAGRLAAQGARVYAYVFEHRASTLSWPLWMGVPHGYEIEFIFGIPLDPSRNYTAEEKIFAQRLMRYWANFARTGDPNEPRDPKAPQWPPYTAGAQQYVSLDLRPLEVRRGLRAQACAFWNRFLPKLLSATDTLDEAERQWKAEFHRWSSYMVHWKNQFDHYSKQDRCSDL
Description: as §1

Aβ (1–42) = target: T3, Aβ (1–42) (Homo sapiens, UniProt P05067); experiment: Inhibition of self-induced Aβ (1–42) aggregation, thioflavin T-based fluorometric assay; assay type: biochemical; settings: 20 μM compounds, 20 μM Aβ (1–42), 37 °C, 48 h; mean ± SD
T3 construct: An amount of 250 μg Aβ (1–42) was dissolved; purchased Sigma-Aldrich
T3 sequence (P05067 672-713): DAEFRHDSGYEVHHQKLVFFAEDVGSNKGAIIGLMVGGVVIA
Description: TFAs 8a–e were tested for their ability to inhibit self-induced Aβ (1–42) aggregation by a thioflavin T-based fluorometric assay, and curcumin and ferulic acid were used as reference compounds.
An amount of 250 μg Aβ (1–42) was dissolved in 1 mL hexafluoroisopropanol (HFIP) and lyophilizated, then dissolved in 25 μL DMSO and 150 μL 50 mM phosphate buffer saline (PBS). For the self-induced assay, 10 μL of Aβ (1–42) was incubated with 10 μL test compounds, both at a final concentration of 20 μM, at 37 °C for 48 h. Then, 40 μL PBS and 100 μL 5 μM thioflavin T (ThT) in 50 mM glycine-NaOH buffer (pH 8.5) was added. […] The percent inhibition of the self-induced aggregation due to the presence of the test compound was calculated by the following expression: 100 − (IFi/IF0 × 100) where IFi and IF0 are the fluorescence intensities with and without test compound, respectively, minus the fluorescence intensities due to the respective blanks.

AChE [2] = target: T2, AChE; experiment: Kinetic analysis of AChE inhibition (Lineweaver-Burk); assay type: biochemical; settings: Lineweaver-Burk reciprocal plots, six substrate concentrations
Description: Kinetic characterization of AChE was performed as the reported method using six different substrate concentrations (50, 90, 150, 266, 452, and 904 μM). An amount of 60 µL PBS, 20 µL DTNB, 10 µL AChE, and 10 µL inhibitor were mixed together and pre-incubated for 10 min, followed by the addition of 20 μL different substrate and then incubated for 15 min. After that, 30 μL 1% SDS was added. Kinetic characterization of the hydrolysis of acetylthiocholine chloride catalyzed by AChE was done spectrometrically at 415 nm. A parallel control with no inhibitor in the mixture, allowed adjusting activities to be measured.

Neuro-2A cells = experiment: Protective effect against Aβ-induced neurotoxicity, MTT viability assay; assay type: cell-based; settings: 8d 5 or 10 μM with 10 μM Aβ (1–42), 48 h, p < 0.05
Description: To investigate the protective effect of 8d against Aβ-induced cytotoxicity, 8d (0, 5 or 10 μM) and 10 μM Aβ (1–42) was directly added into the medium of the Neuro-2A cells. The cells were incubated for 48 h.
Neuro-2A cell were grown in dulbecco’s modified eagle medium (DMEM) plus 1% glutamine and 10% heat-inactivated fetal bovine serum. The assays were performed in 96-well microtiter plates. Cells were treated with or without lyophilizated Aβ (1–42) (10 μM), or different concentrations of 8d (5, 10 μM) combination and incubated for 48 h. Then, 10 µL of MTT (5 mg/mL) was added to each well and incubated for four hours, and then the liquid in the wells was removed. DMSO (150 µL) was added to each well. The absorbance was recorded using a microplate reader at a wavelength of 570 nm.
Neuroprotective effect of 8d were evaluated by cells treated with 8d at the concentration of 0, 5 or 10 μM in the presence of 10 μM Aβ for 48 h; Vehicle group was treated with solvent. The cell viability was assessed using the 3-[4,5-dimethylthylthiazol-2-yl]-2,5 diphenyltetrazoliumbromide (MTT) assay. Data are from three independent experiments and are expressed as the mean ± SD values. ** p < 0.01 compared to vehicle. * p < 0.05, represents significant differences from the control group.

[3] = Cu2+-chelating properties assay by UV spectrometry; assay type: physicochemical; settings: 8d 40 μM with 10, 20, 40 μM CuCl2 in MeOH, UV 220–400 nm
Description: In recent years, there is mounting evidence to support the theory that endogenous copper can be involved as factors or cofactors in the etiopathogenesis of AD, and modulating Cu^2+ in the brain should be to the benefit of AD treatment. The chelating effect of 8d for Cu^2+ was studied by ultra violet (UV) spectrometry with wavelength ranging from 220 to 400 nm.
The complexing studies were determined using a UV spectrophotometer (Beckman Coulter Inc., Brea, CA, USA). Compound 8d (40 µM) in methanol was mixed with 10, 20, 40 µM CuCl2, and then incubated at room temperature for 5 min. The absorption spectra were recorded from 220 nm to 400 nm after incubation.

T1 sequence (P06276 29-602): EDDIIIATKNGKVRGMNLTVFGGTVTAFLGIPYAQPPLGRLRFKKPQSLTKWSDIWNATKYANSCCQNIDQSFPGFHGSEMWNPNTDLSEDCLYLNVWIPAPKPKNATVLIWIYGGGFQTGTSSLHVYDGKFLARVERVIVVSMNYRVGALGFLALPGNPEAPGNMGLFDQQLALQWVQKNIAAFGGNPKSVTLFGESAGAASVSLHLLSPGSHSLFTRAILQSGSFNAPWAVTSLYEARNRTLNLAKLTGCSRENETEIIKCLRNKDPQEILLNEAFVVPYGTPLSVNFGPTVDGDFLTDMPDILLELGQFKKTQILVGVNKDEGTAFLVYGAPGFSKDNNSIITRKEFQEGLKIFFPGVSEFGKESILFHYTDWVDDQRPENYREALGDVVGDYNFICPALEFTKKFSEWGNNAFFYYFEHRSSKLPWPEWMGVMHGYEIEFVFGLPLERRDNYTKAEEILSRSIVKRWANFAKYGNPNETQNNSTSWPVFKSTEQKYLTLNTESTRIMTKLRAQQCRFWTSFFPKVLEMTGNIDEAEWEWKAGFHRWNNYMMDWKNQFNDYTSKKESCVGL

| Structure (SMILES) | IC50 (BuChE) | Selectivity Index (AChE [1]) | IC50 (AChE [1]) | inhibition at 20 µM (Aβ (1–42)) | mechanism of AChE inhibition (AChE [2]) | cell viability compared with Aβ-treated alone group (in words) (Neuro-2A cells) | chelating effect for Cu^2+ (in words) [3] |
| --- | --- | --- | --- | --- | --- | --- | --- |
| COC(=O)/C=C/c1ccc(OCCCCN2CCN(CC(=O)Nc3c4c(nc5ccccc35)CCCC4)CC2)c(OC)c1 [Compound 8c, Methyl (E)-3-(3-methoxy-4-(4-(4-(2-oxo-2-((1,2,3,4-tetrahydroacridin-9-yl)amino)ethyl)piperazin-1-yl)butoxy)phenyl)acrylate] | 215 ± 33.7 nM | 4.087 | 52.7 ± 8.2 nM | 18.5 ± 4% |  |  |  |
| COc1cc(/C=C/C(=O)CC(=O)/C=C/c2ccc(O)c(OC)c2)ccc1O [curcumin, reference compound] |  |  |  | 37.3 ± 1.2% |  |  |  |
| COC(=O)/C=C/c1ccc(OCCCCCCN2CCN(CC(=O)Nc3c4c(nc5ccccc35)CCCC4)CC2)c(OC)c1 [Compound 8e, Methyl (E)-3-(3-methoxy-4-((6-(4-(2-oxo-2-((1,2,3,4-tetrahydroacridin-9-yl)amino)ethyl)piperazin-1-yl)hexyl)oxy)phenyl)acrylate] | 196 ± 3.5 nM | 1.059 | 184 ± 15.2 nM | 35.1 ± 3.2% |  |  |  |
| COc1cc(/C=C/C(=O)O)ccc1O [ferulic acid] |  |  |  | 36.5 ± 3.6% |  |  |  |
| COC(=O)/C=C/c1ccc(OCCCN2CCN(CC(=O)Nc3c4c(nc5ccccc35)CCCC4)CC2)c(OC)c1 [Compound 8b, Methyl (E)-3-(3-methoxy-4-(3-(4-(2-oxo-2-((1,2,3,4-tetrahydroacridin-9-yl)amino)ethyl)piperazin-1-yl)propoxy)phenyl)acrylate] | 120 ± 12.5 nM | 1.326 | 90.3 ± 7.3 nM | 19.5 ± 2.7% |  |  |  |
| COC(=O)/C=C/c1ccc(OCCN2CCN(CC(=O)Nc3c4c(nc5ccccc35)CCCC4)CC2)c(OC)c1 [Compound 8a, Methyl (E)-3-(3-methoxy-4-(2-(4-(2-oxo-2-((1,2,3,4-tetrahydroacridin-9-yl)amino)ethyl)piperazin-1-yl)ethoxy)phenyl)acrylate] | 203 ± 35.7 nM | 0.660 | 306 ± 12.4 nM | 26.1 ± 4.5% |  |  |  |
| COC(=O)/C=C/c1ccc(OCCCCCN2CCN(CC(=O)Nc3c4c(nc5ccccc35)CCCC4)CC2)c(OC)c1 [Compound 8d, Methyl (E)-3-(3-methoxy-4-((5-(4-(2-oxo-2-((1,2,3,4-tetrahydroacridin-9-yl)amino)ethyl)piperazin-1-yl)pentyl)oxy)phenyl)acrylate] | 107 ± 13.1 nM | 1.733 | 61.7 ± 5.2 nM | 37.2 ± 0.9% | mixed-type inhibitors | significant dose-dependent increase in cell viability | complex 8d-Cu^2+ had been produced |

Reference: PMC6273353, “Design, Synthesis and Evaluation of Novel Tacrine-Ferulic Acid Hybrids as Multifunctional Drug Candidates against Alzheimer’s Disease” (Molecules, 2016)
